1 sequence from patent publication US20190231847A1, “TREATMENT OF OCULAR DISEASE” (priority 2016, published 2019) can be followed below.

The conditions of data set [1]: mouse, in vivo, ip, 0.3 mg/kg.
Description: Bodyweight (BW) of each mouse was monitored daily during the course of treatment.
For data set [2], the system named is NFκB. The data set is described as follows: Immunohistochemical analysis of free NFκB expression in rat cornea. Particulars: 1 μM ALM201. The data set is classed as in vivo. On the procedure: Approximately 24 hours after the last treatment the eyes were imaged and clinically scored. The sutured eyes were scored based on vessel density, vessels distance to suture and inflammation. Vessel density was scored out of three, 0=no density, 1=mild, 2=moderate, 3=high. Vessels distance to suture was scored out of four, 0=no reach, 1=small distance, 2=moderate distance, 3=¾ of the way, 4=reached sutures and inflammation was scored out of three, 0=none, 1=minimal, 2=moderate, 3=severe. After clinical scoring the eyes were enucleated, tissue processed, wax embedded and cut into 5 μm sections while taking care to find the sutured area. Sections were stained with haematoxylin and eosin (H&E) to confirm suture location in each eye and adjacent slides were then used for immunohistochemistry to identify CD44+ cells and FKBPL expression as well NFκB and p-IκBα.
NFκB and phosphorylated-IκBα antibodies were also used in this experiment to see if ALM201 affected the NFκB pathway. Nuclear factor kappa-light-chain-enhancer of B cells or NFκB is a transcription factor which is involved in several processes including inflammation, B cell development, apoptosis, immune regulation and cell proliferation. There are 5 different NFκB heterodimers in the NFκB family, depending on which heterodimer is activated they can activate or repress the transcription of the above process. […]

Data set [3] relates to retinal inflammation. The data set is described as follows: Mouse experimental autoimmune uveitis (EAU) model, clinical score from fundus images (TEFI). Particulars: for Difference between day 14 p.i. and day 24 p.i. (clinical score): paired Student's t test.
Protocol: The effect of ALM201 on autoimmune uveitis was tested in a mouse model of experimental autoimmune uveitis (EAU).
All mice were maintained in a normal experimental room and exposed to a 12-hour-dark-12-hour light cycle.
An additional 1 mg Bordetella pertussis toxin (Tocris Bioscience, Bristol, UK) was administered intraperitoneally immediately after peptide injection.
Mouse pupils were dilated with 1% atropine sulphate and 2.5% phenylephrine hydrochloride (Chauvin, Essex, UK). The animals were anaesthetised by isofluorane. […] Clinical score of retinal inflammation was accessed using the criteria described previously by us (Xu et al. 2008a).
Ten mice were assigned into each group.
All animals were treated for 10 days from day 14 to 24 p.i.
Group 2: ALM201 0.3 mg/kg in 100 ml, i.p. injection, once daily.
Group 3: ALM201 3 mg/kg in 100 ml, i.p. injection, once daily.
Group 4: Dexamethasone 0.5 mg/kg in 100 ml, p.o. (gavage), once daily.
Group 5: ALM201 0.3 mg/kg in 100 ml, i.p. injection+Dexamethasone 0.5 mg/kg in 100 ml, p.o. (gavage) once daily.
Data (Clinical score and histological score) was expressed as mean±SD. One way ANOVA followed by the Tukey's Multiple Comparison Test was used to detect difference between all treatment groups. In addition, Mann-Whitney U test (two tails) was used to detect the difference between ALM201 or dexamethasone treated group and PBS control group. Paired Student's t test was used to compare clinical score before and after treatment.
In data set [4] the test system is retinal inflammation. Briefly: Mouse EAU model, histopathology (H&E) and histological score. It is filed as in vivo, C57BL/6J mice. An excerpt:
On day 24 p.i., fundus images were taken from all experimental mice using the TEFI system. Mice were then sacrificed by CO2 inhalation and eyes were carefully removed. All eyes were fixed in 2.5% (w/v) glutaraldehyde (Agar Scientific Ltd, Cambridge, UK) for 2 days at room temperature. Eyes were embedded in paraffin for standard H&E staining. Histological scores of retinal inflammation were graded using a standard scoring system described previously (Dick A. D., Cheng Y. F., Liversidge J., Forrester J. V., 1994. Immunomodulation of experimental autoimmune uveoretinitis: a model of tolerance induction with retinal antigens. Eye 8 (Pt 1), 52-59, incorporated herein by reference). Retinal sections from at least three different layers from each eye were used for histopathological analysis. The average score from three layers was used as the final pathological score of the eye.

The mark [5] stands for this setting: ALM201 0.3 mg/kg i.p. once daily day 14-24 p.i., 10 mice.
[6] abbreviates: ALM201 3 mg/kg i.p. once daily day 14-24 p.i., 10 mice.
Setting [7] is: ALM201 0.3 mg/kg, after 10 days therapy.

Take “IRQQPRDPPTETLELEVSPDPAS (listed as Homo Sapiens) [ALM201]”: the “Bodyweight during the 10-day treatment period” value in data set [1] was “stable BW”. Also, the “NFκB expression compared to PBS control sutured corneas” value in data set [2] (sutured corneas) is “reduction in NFκB expression in the stroma”. In addition, in data set [2] (unsutured corneas), the “Pattern of NFκB expression” value was “no effect”. Also, in data set [3] (ALM201 0.3 mg/kg), the “Mice in which progression was prevented or inflammation reduced” value was found to be 20% and the “Mice with decreased level of EAU progression” value is 80%. Moreover, in data set [3] (setting [5]), the “No. of mice with decreased score (%)” value is “(10%)”, the “No. of mice with increased score” value was determined as 8, the “No. of mice with increased score (%)” value is recorded as “(80%)” and the “No. of mice with no change (%)” value is “(10%)”. Moreover, in data set [3] (ALM201 0.3 mg/kg i.p., 0.3 mg/kg), the “Difference between day 14 p.i. and day 24 p.i. (clinical score)” value is “did not significant change and No”. Further, the “Retinal infiltrates in fundus images compared to PBS treated EAU mice” value in data set [3] (ALM201 0.3 mg/kg, day 24 p.i.) is given as “the number of infiltrates was fewer”. Also, the “Average increment in clinical score, day 14 to day 24 p.i.” value in data set [3] (ALM201 0.3 mg/kg, the 8 mice with increased score) stood at 0.68. In data set [3] (setting [6]), the “No. of mice with decreased score” value is 3, the “No. of mice with increased score (%)” value is “(40%)” and the “No. of mice with no change” value was 3. In data set [3] (ALM201 3 mg/kg i.p.), the “Difference between day 14 p.i. and day 24 p.i. (clinical score)” value is recorded as “No”. Also, in data set [3] (ALM201 3 mg/kg, the 3 mice with decreased score), the “Average decrement in clinical score, day 14 to day 24 p.i.” value was 0.33. The “Average increment in clinical score, day 14 to day 24 p.i.” value in data set [3] (ALM201 3 mg/kg, the four mice with increased score) turned out to be 0.82 point. Further, in data set [4] (setting [7]), the “Infiltrating cells in retinal histology” value is reported as “Fewer infiltrating cells” and the “Retinal structure compared to PBS treated mice” value was “retinal structure was better preserved”. For the same sequence, the “Retinal inflammation graded by standard histological scoring system (FIG. 8H)” value in data set [4] (ALM201 0.3 and 3 mg/kg) is recorded as “dose-dependently suppressed retinal inflammation”.
